Results from patent US11471504B2, “Combination therapy for the treatment of cancer” (Yeda Research and Development Co. Ltd., priority 2017, dated 2022).
“Also recorded” adds a separate entry of the source. Residues, ends and D or L forms follow the SMILES beside them. *: point of attachment. Myristoyl = CCCCCCCCCCCCCC(=O)*

Columns and labels:
[1] = system: nuclear translocation of ERK1/2; test: ERK1/2 nuclear translocation, fluorescence microscopy, EPE-sensitive NRAS melanomas (63T, 83T, 120T, 60T); assay type: cell-based, human; details: EPE-sensitive cells; serum starved, peptide 10 μM 2 h, TPA 100 nM 15 min
Method: (§1) FIGS. 2A-B: The EPE peptide blocks the nuclear translocation in “sensitive” NRAS melanomas. The same seven cell lines selected previously, were serum starved (14 h), pre-treated with EPE or Scr peptide […], and stimulated with TPA (100 nM, 15 min) or left untreated (NS). Cells were then fixed and stained with αERK2 Abs and DAPI. […] (B) The effect of EPE peptide on the nuclear translocation of ERK1/2 is modest in resistant cells compared to (A). Bars represent average percentage of cells with mostly nuclear (N, red), nuclear and cytosolic (NC, black) or mostly cytosolic (C, white) staining. Error bars represent standard error of 2 or 3 independent experiments. Quantification was done by counting at least three fields with >150 cells.
(§2) Fluorescence microscopy: Cells were seeded on coverslips coated with 0.001% w/v poly-L-Lysine (PLL) at 60% confluency. After treatments, cells were fixed in 4% paraformaldehyde/PBS^−/− for 20 min on ice surface, permeabilized with 0.1% Triton X-100/PBS^−/− for 5 min at 23° C., then blocked in 2% BSA/PBS^−/− for 30 min at 23° C. […] Slides were analyzed and photographed by a fluorescence microscope (Olympus BX51, x40). […]

[2] = system: ERK1/2 signaling; test: Western blot of ERK1/2 signaling, EPE-resistant melanomas (39T, 103T); assay type: cell-based, human; details: EPE-resistant cells, 10 μM 2 h
Method: (§3) FIGS. 3A-B: The EPE peptide reduces phosphorylation of nuclear targets in NRAS mutant melanomas. Two NRAS melanomas sensitive to EPE peptide (60T an 83T), and two EPE-resistant melanomas (39T and 103T), were serum starved (16 h), pretreated with EPE or Scr peptides (10 μM, 2 h), and stimulated with TPA (100 nM, 15 min) (+) or left untreated (−). […] (A) (Left) In the EPE-sensitive cells, the peptide reduced the phosphorylation of nuclear targets Elk1 and c-Myc in stimulated and basal state, while not affecting cytosolic target RSK. […] (B) Quantification of bands in (A). Bars represent average band density ratio of EPE stimulated samples (EPE+) compared to Scr stimulated samples (Scr+), ±S.E. of 2 or 3 independent experiments. Bands were quantified using ImagJ.
(§4) Quantification of blots was done using ImageJ.

[3] = system: melanoma cell lines; test: Cell viability assay (CellTiter-Glo), panel of melanoma cell lines; assay type: cell-based, human; details: 36 melanoma cell lines, peptide 10 μM, 72 h
[4] = system: 39T NF1 mutant melanoma cells; test: Cell viability assay (CellTiter-Glo), 39T; assay type: cell-based, human; details: 10 μM, 72 h
[5] = system: nuclear translocation of ERK1/2; test: ERK1/2 nuclear translocation, fluorescence microscopy, EPE-resistant melanomas (110T, 39T, 103T); assay type: cell-based, human; details: EPE-resistant cells; serum starved, peptide 10 μM 2 h, TPA 100 nM 15 min
Method: as §1, §2

[6] = system: cancer cell types, BRAF melanomas; details: cited from earlier work
[7] = system: interaction of Importin7 with ERK1/2; details: cited from earlier work
[8] = system: ERK1/2 signaling; test: Western blot of ERK1/2 signaling, EPE-sensitive NRAS melanomas (60T, 83T); assay type: cell-based, human; details: EPE-sensitive cells, 10 μM 2 h
Method: as §3, §4

[9] = system: 60T NRAS mutant melanoma cells; details: 10 µM
Method: (§9) (A) Effect of the EPE peptide on proliferation of metastatic melanoma cells. Thirty-six melanoma cell lines derived from metastatic tumor resections were treated with either EPE or scrambled (Scr) peptides (10 μM). […] Cell viability was measured by CellTiter-Glo reagent after 72 h of treatment. Bars represent percentage of growth respect to Scr peptide control ±S.E. of 3 independent experiments.
(§10) Pathology-confirmed melanoma cell lines were derived from mechanically or enzymatically dispersed tumor cells, which were then cultured in RPMI-1640 supplemented with 10% FBS at 37° C. in 5% CO2 for 5-15 passages. All cell lines have tested negative for mycoplasma.
(§11) Cell viability assay: Cells were seeded at a density of 4000 cells per well into 96-well plates in complete medium. After 24 h, medium was replaced by 1% FCS containing appropriate treatments. Fresh medium containing the same agents was replaced every day. After 96 h, cell proliferation was assessed using the CellTiter-Glo reagent (Promega). IC50 values were determined using GraphPad Prism.

[10] = system: 63T NRAS mutant melanoma cells; details: 10 µM
Method: as §9, §10, §11

[11] = system: 83T NRAS mutant melanoma cells; test: Cell viability assay (CellTiter-Glo), 83T; assay type: cell-based, human; details: 10 μM, 72 h
Method: (§5) (B) Effect of BRAF inhibitor vemurafenib on selected melanomas. […] All melanoma cells selected were resistant to BRAF inhibition.
(§6) Dots represent triplicates for every concentration point. […] Viable cells were quantified using CellTiter-Glo reagent. […] Quantified levels are given under the blots. ImageJ was used for the quantification.
(§7) All cell lines have tested negative for mycoplasma.
(§8) IC50 values were determined using GraphPad Prism.

[12] = system: 110T NRAS mutant melanoma cells; test: Cell viability assay (CellTiter-Glo), 110T; assay type: cell-based, human; details: 10 μM, 72 h
Method: as §5, §6, §7, §8

[13] = system: 120T NRAS mutant melanoma cells; test: Cell viability assay (CellTiter-Glo), 120T; assay type: cell-based, human; details: 10 μM, 72 h
[14] = system: BRAF and MEK inhibitor-resistant models; details: cited from earlier work

CCCCCCCCCCCCCC(=O)NCC(=O)N[C@@H](CCC(N)=O)C(=O)N[C@@H](CC(C)C)C(=O)N[C@@H](CC(N)=O)C(=O)N[C@@H](Cc1c[nH]cn1)C(=O)N[C@H](C(=O)N[C@@H](CC(C)C)C(=O)NCC(=O)N[C@H](C(=O)N[C@@H](CC(C)C)C(=O)NCC(=O)N[C@@H](CCC(=O)O)C(=O)N1CCC[C@H]1C(=O)N[C@@H](CCC(=O)O)C(=O)N[C@@H](CCC(N)=O)C(=O)N[C@@H](CCC(=O)O)C(=O)N[C@@H](CC(=O)O)C(=O)N[C@@H](CC(C)C)C(N)=O)[C@@H](C)CC)[C@@H](C)CC [EPE peptide] (Myristoyl-GQLNHILGILGEPEQEDL-NH2)
effect on stimulated nuclear translocation of ERK1/2 [1]: disrupted; also recorded: significantly reduces | activity of ERK1/2 (phosphorylation of activatory TEY motif and substrate RSK) [2]: did not inhibit | phosphorylation levels of c-Myc [2]: slightly increased | phosphorylation of Elk1 [2]: no effect | phosphorylation of RSK [2]: no effect | sensitivity of metastatic melanoma cell lines to the EPE peptide (viability vs Scr peptide) [3]: A subset of BRAF, NRAS and NF1 mutant melanomas were sensitive | sensitivity to the EPE peptide (percentage of viability compared to Scr peptide control) [4]: resistant (resistant (above 80%)) | effect on stimulated nuclear translocation of ERK1/2 [5]: disrupted; also recorded: modest | apoptosis ([6]; BRAF melanomas): induces apoptosis | proliferation of cancer cell types ([6]; several cancer cell types): inhibit the proliferation | interaction of Importin7 with ERK1/2 and nuclear translocation of ERK1/2 [7]: inhibited | activity of ERK1/2 (phosphorylation of activatory TEY motif and substrate RSK) [8]: did not inhibit | phosphorylation of cytosolic target RSK [8]: not affecting | phosphorylation of nuclear target Elk1 ([8]; basal and TPA-stimulated): reduced | phosphorylation of nuclear target c-Myc ([8]; basal and TPA-stimulated): reduced | sensitivity to the EPE peptide (percentage of viability compared to Scr peptide control) [9]: sensitive | sensitivity to the EPE peptide (percentage of viability compared to Scr peptide control) [10]: sensitive | sensitivity to the EPE peptide (percentage of viability compared to Scr peptide control) [11]: sensitive | sensitivity to the EPE peptide (percentage of viability compared to Scr peptide control) [12]: resistant (resistant (above 80%)) | sensitivity to the EPE peptide (percentage of viability compared to Scr peptide control) [13]: sensitive

O=C(Nc1ccc2[nH]nc(-c3ccncc3)c2c1)[C@@H]1CCN(CC(=O)N2CCN(c3ccc(-c4ncccn4)cc3)CC2)C1 [SCH772984]
tumor growth [14]: showed benefits in reducing tumor growth
